Reference: paper PMC4527731, “Calcineurin Undergoes a Conformational Switch Evoked via Peptidyl-Prolyl Isomerization” (PLoS ONE, 2015)

Columns and labels:
[1] = test system: Endogenous CN in HEK 293T cells; assay: Inhibition of endogenous CN activity by CsA in NFATc-luciferase reporter assay; assay type: cell-based; conditions: 1 μM CsA, 30 min before stimulation with Io/PMA/Ca^2+ for 6 hours
Description: Flag-hCNAα mutants were performed by PCR using CN specific primers (Table 2). ΔNIR mutant lacks the CNA PXIXIT binding region VMNIR ranging from amino acids 328 to 332. All Flag-CNA constructs bear the Y341F mutation to achieve CsA resistance unless for the specified wt. Luciferase gene assays were performed in HEK 293T cells transfected with 100 ng of 3xNFAT-luc plasmid, 100 ng of pBJ5-mCNB, 1 ng of pRLNull as an internal transfection control and 400 ng of the indicated Flag-hCNAα mutants constructs. Stimulation was achieved by treating the cells with.1 μM ionomycin, 10 nM PMA and 10 mM CaCl2. Endogenous CN activity was abolished by treating cells with 1 μM Cyclosporin A (CsA) 30 min prior to stimulation. FK506 was used as a positive control for CsA-resistant CN. After 6h of cell stimulation, 10 μl of cell extract were analyzed for luciferase gene expression using the Dual-Luciferase Reporter Assay (Promega) following the manufacturer’s protocol on a multiplate luminometer (FLUOstar Optima, BMG). Luciferase units were normalized to densitometric data of 10 μl of cell extract analyzed by western blot. Absence of cell stimulation is shown with a minus symbol (-). Three experiments were performed with triplicates. Stimulation of the Y341F mutant was considered as 100% value.

[2] = test system: CNA (human CNAα catalytic domain); assay: Fluorescence polarization competition of CF-SPRIEIT-CNA complex; assay type: binding; conditions: 10 nM CF-labeled SPRIEIT, 10 μM CNA, unlabeled competitor pre-incubated 15 min at increasing concentrations, room temperature, ex 485 nm, em 535 nm, two independent experiments in triplicates (Fig 6a)
Description: Peptides were purchased from the Peptide 2.0 Company (Chantilly, VA) and synthesized as acetylated N-terminal and C-terminal amides for the unlabeled peptides and N-carboxyfluorescein (CF) and C-terminal amide for the labelled peptide. The sequences of the peptides used are the following: […] for the RCAN^183–203 peptide; […] for the cis-CNA derived peptide; and […] for the NFATc2-SPRIEIT (SPRIEIT) peptide. All peptides were resuspended in 100% DMSO at 10 mM. Cyclosporin A (CsA) was obtained from Sandoz. Ionomycin (Io) sodium salt and Phorbol 12-myristate 13-acetate sodium salt (PMA) were obtained from Sigma. The anti-calcineurin A antibody was purchased from BD Biosciences and the anti-Flag M2 antibody was purchased from Sigma. The protease and phosphatase inhibitor cocktails were from Calbiochem.
Expression, purification and isolation of the CNAα domain was performed as previously described. […]
Competition assays were performed as described. […] Unlabeled competitor peptides were pre-incubated with CNA at increasing concentrations for 15 min before adding the fluorescence labeled peptide. Experiments were performed in a OptiPlate black 384-well-flat-bottom plates (PerkinElmer Life Sciences, Waltham, MA) and measured using a Wallac VICTOR (TM) X5 2030 Multilabel Reader (PerkinElmer Life Sciences) with excitation and emission wavelengths of 485 nm and 535 nm respectively. […]

[3] = test system: Flag-CNA 2–389 / GST-NFATc2 interaction; assay: GST-NFATc2 pull-down competition assay; assay type: binding; conditions: HEK 293T cells transfected with FLAG–CNA (2–389); soluble extracts with GST–NFATc2 beads 60 min at 4°C; increasing peptide concentrations (Fig 6c)
Description: (§1) In GST-RCAN3 pull-down competition assays, HEK 293T cells were lysed in co-immunoprecipitation buffer (50 mM Tris–HCl, pH 7.5, 100 mM NaCl, 2 mM CaCl2, 5 mM MgCl2, 1% IGEPAL, 1 mM DTT, 2 mM PMSF and protease and phosphatase inhibitor cocktails) and the CNA- and the RCAN3-derived peptides containing a PxIxIT sequence were added to the extracts at the indicated concentrations for 30 min. Then, the soluble extracts were incubated with GST–RCAN3 bound to Glutathione Sepharose beads for 90 min at 4°C. After extensive washing, co-precipitated proteins were eluted by resuspension in 2× Laemmli buffer and boiled for 10 min. For GST–NFATc2 pull-down competition assays, HEK 293T cells transfected with FLAG–CNA (2–389) were lysed in a buffer containing 50 mM Tris–HCl, pH 8, 100 mM NaCl, 1.5 mM CaCl2, 6 mM MgCl2, 0.2% TX-100, 1 mM PMSF and protease and phosphatase inhibitor cocktails. Soluble extracts were incubated with GST–NFATc2 bound to Glutathione Sepharose beads for 60 min at 4°C.

[4] = test system: Endogenous CNA / GST-RCAN3 interaction; assay: GST-RCAN3 pull-down competition assay; assay type: binding; conditions: HEK 293T lysate, peptide at increasing concentrations for 30 min, then GST–RCAN3 beads 90 min at 4°C (Fig 6b)
Description: as §1

[5] = molecular target: T1, catalytic domain of human CNAα (residues 2–347) (human, UniProt Q08209-1 2-347); assay: fluorescence polarisation; competition: 10 nM CF-labeled SPRIEIT peptide and 10 μM CNA; unlabeled competitor peptides pre-incubated with CNA at increasing concentrations for 15 min; room temperature; conditions: both partners purified
T1 construct: calcineurin catalytic subunit A, alpha isoform, human, NCBI NP_000935.1, catalytic domain residues 2-347; also called CNAα catalytic domain; trans-CNA; source: from the pGEX-6P-1-CNAα plasmid
T1 sequence (Q08209 2-347): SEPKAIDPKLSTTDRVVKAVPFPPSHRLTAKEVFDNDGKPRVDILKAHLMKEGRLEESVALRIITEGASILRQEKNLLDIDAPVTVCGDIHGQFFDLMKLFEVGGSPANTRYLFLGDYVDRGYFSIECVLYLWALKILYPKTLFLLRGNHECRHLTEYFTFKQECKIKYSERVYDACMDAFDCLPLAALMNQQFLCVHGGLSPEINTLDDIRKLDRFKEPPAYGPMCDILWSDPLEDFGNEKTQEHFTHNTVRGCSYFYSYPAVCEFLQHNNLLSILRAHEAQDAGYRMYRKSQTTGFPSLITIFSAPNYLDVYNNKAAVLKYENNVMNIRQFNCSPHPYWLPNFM

Row | Molecule | endogenous CN activity after CsA treatment [1] | interference with CN–SPRIEIT peptide interaction (fluorescence polarization competition) [2] | interference with CN–GST-NFATc2 interaction (pull down) [3] | interference with CN–GST-RCAN3 interaction (pull down) [4] | binding result [5]
1 | Cyclosporin A [CsA] | abolished | – | – | – | –
2 | KYELHAGTESTPSVVVHVCES [R3^183-203, RCAN3-derived PxIxIT-containing peptide (amino acids 183–203)] | – | able to disrupt CN interaction with proteins containing a PxIxIT motif | able to disrupt CN interaction with proteins containing a PxIxIT motif | able to disrupt CN interaction with proteins containing a PxIxIT motif | –
3 | NNKAAVLKYE | – | does not interfere with high affinity interactions | does not interfere with high affinity interactions | does not interfere with high affinity interactions | –
4 | Ac-KYELHAGTESTPSVVVHVCES-NH2 (source: synthetic peptide, bought: Peptide 2.0 Company) [RCAN3-derived PxIxIT-containing peptide (amino acids 183–203)] | – | – | – | – | binds
